The record followed here is PubChem BioAssay AID1259407 (Chemical Carcinogenesis Research Information System (CCRIS), 2018).

Active and inactive are the calls of the source. The rule behind the calls is not given here.

The series relates to CCRIS mutagenicity, Ames/micronucleus/aberration tests. Briefly: CCRIS mutagenicity studies.
Setting [1] is: Test System: AMES SALMONELLA TYPHIMURIUM, Strain/Indicator: TA98, Metabolic Activation: NONE, Method: STANDARD PLATE.
Where [2] appears, read: Test System: AMES SALMONELLA TYPHIMURIUM, Strain/Indicator: TA100, Metabolic Activation: NONE, Method: STANDARD PLATE.

For `Oc1ccc2cc3ccc4cccc5ccc(c2c1)c3c45`, the mutagenic call was “active; positive” (Test System: AMES SALMONELLA TYPHIMURIUM, Strain/Indicator: TA98, Metabolic Activation: RAT, LIVER, 3-METHYLCHOLANTHRENE, Method: LIQUID SUSPENSION); “active; positive” (Test System: AMES SALMONELLA TYPHIMURIUM, Strain/Indicator: TA1538, Metabolic Activation: RAT, LIVER, 3-METHYLCHOLANTHRENE, Method: LIQUID SUSPENSION); “active; positive” (Test System: CHINESE HAMSTER V-79, Strain/Indicator: V-79/OUABAIN, Metabolic Activation: NONE, Method: STANDARD PLATE).

Regarding `Cc1ccc(C)c2c1c1ccccc1n2C`, the mutagenic call under setting [1] is “inactive; negative”; the mutagenic call (Test System: AMES SALMONELLA TYPHIMURIUM, Strain/Indicator: TA98, Metabolic Activation: RAT LIVER S-9, AROCLOR 1254, Method: STANDARD PLATE) is “active; positive”; the mutagenic call under setting [2] was “inactive; negative”; the mutagenic call (Test System: AMES SALMONELLA TYPHIMURIUM, Strain/Indicator: TA100, Metabolic Activation: RAT LIVER S-9, AROCLOR 1254, Method: STANDARD PLATE) was “active; positive”.

For `C=CC(=O)OCCCCOC(=O)C=C`, the mutagenic call is “inactive; negative” under setting [1]; “inactive; negative” (Test System: AMES SALMONELLA TYPHIMURIUM, Strain/Indicator: TA98, Metabolic Activation: RAT, LIVER, S-9, AROCLOR 1254, Method: STANDARD PLATE); “inactive; negative” (Test System: AMES SALMONELLA TYPHIMURIUM, Strain/Indicator: TA98, Metabolic Activation: RAT, LIVER, S-9, SODIUM PHENOBARBITAL, Method: STANDARD PLATE); “inactive; negative” under setting [2]; “inactive; negative” (Test System: AMES SALMONELLA TYPHIMURIUM, Strain/Indicator: TA100, Metabolic Activation: RAT, LIVER, S-9, AROCLOR 1254, Method: STANDARD PLATE); “inactive; negative” (Test System: AMES SALMONELLA TYPHIMURIUM, Strain/Indicator: TA100, Metabolic Activation: RAT, LIVER, S-9, SODIUM PHENOBARBITAL, Method: STANDARD PLATE). The mutagenic call by setting is: (Test System: AMES SALMONELLA TYPHIMURIUM, Strain/Indicator: TA1535, Metabolic Activation: NONE, Method: STANDARD PLATE) “inactive; negative”; (Test System: AMES SALMONELLA TYPHIMURIUM, Strain/Indicator: TA1535, Metabolic Activation: RAT, LIVER, S-9, AROCLOR 1254, Method: STANDARD PLATE) “inactive; negative”; (Test System: AMES SALMONELLA TYPHIMURIUM, Strain/Indicator: TA1535, Metabolic Activation: RAT, LIVER, S-9, SODIUM PHENOBARBITAL, Method: STANDARD PLATE) “inactive; negative”; (Test System: AMES SALMONELLA TYPHIMURIUM, Strain/Indicator: TA1537, Metabolic Activation: NONE, Method: STANDARD PLATE) “inactive; negative”; (Test System: AMES SALMONELLA TYPHIMURIUM, Strain/Indicator: TA1537, Metabolic Activation: RAT, LIVER, S-9, AROCLOR 1254, Method: STANDARD PLATE) “inactive; negative”; (Test System: AMES SALMONELLA TYPHIMURIUM, Strain/Indicator: TA1537, Metabolic Activation: RAT, LIVER, S-9, SODIUM PHENOBARBITAL, Method: STANDARD PLATE) “inactive; negative”. The mutagenic call is, setting by setting: (Test System: AMES SALMONELLA TYPHIMURIUM, Strain/Indicator: TA1538, Metabolic Activation: NONE, Method: STANDARD PLATE) “inactive; negative”; (Test System: AMES SALMONELLA TYPHIMURIUM, Strain/Indicator: TA1538, Metabolic Activation: RAT, LIVER, S-9, AROCLOR 1254, Method: STANDARD PLATE) “inactive; negative”; (Test System: AMES SALMONELLA TYPHIMURIUM, Strain/Indicator: TA1538, Metabolic Activation: RAT, LIVER, S-9, SODIUM PHENOBARBITAL, Method: STANDARD PLATE) “inactive; negative”.

For `O=[N+]([O-])c1ccc2c(c1)CCc1cc3c(cc1-2)CCCC3`, the mutagenic call by setting is: (Test System: AMES SALMONELLA TYPHIMURIUM, Strain/Indicator: TA98(1,8-DNP6), Metabolic Activation: NONE) “active; positive”; (Test System: AMES SALMONELLA TYPHIMURIUM, Strain/Indicator: TA98(1,8-DNP6), Metabolic Activation: RAT, LIVER, S-9, AROCLOR 1254) “active; positive”; (Test System: AMES SALMONELLA TYPHIMURIUM, Strain/Indicator: TA98(NR), Metabolic Activation: NONE) “active; positive”; (Test System: AMES SALMONELLA TYPHIMURIUM, Strain/Indicator: TA98(NR), Metabolic Activation: RAT, LIVER, S-9, AROCLOR 1254) “active; positive”; (Test System: AMES SALMONELLA TYPHIMURIUM, Strain/Indicator: TA98, Metabolic Activation: NONE) “active; positive”; (Test System: AMES SALMONELLA TYPHIMURIUM, Strain/Indicator: TA98, Metabolic Activation: RAT, LIVER, S-9, AROCLOR 1254) “active; positive”. The mutagenic call (Test System: AMES SALMONELLA TYPHIMURIUM, Strain/Indicator: TA100(NR), Metabolic Activation: NONE) is “active; positive”; the mutagenic call (Test System: AMES SALMONELLA TYPHIMURIUM, Strain/Indicator: TA100(NR), Metabolic Activation: RAT, LIVER, S-9, AROCLOR 1254) was “active; positive”; the mutagenic call (Test System: AMES SALMONELLA TYPHIMURIUM, Strain/Indicator: TA100, Metabolic Activation: NONE) is “active; positive”; the mutagenic call (Test System: AMES SALMONELLA TYPHIMURIUM, Strain/Indicator: TA100, Metabolic Activation: RAT, LIVER, S-9, AROCLOR 1254) was “active; positive”; the mutagenic call (Test System: AMES SALMONELLA TYPHIMURIUM, Strain/Indicator: TA104, Metabolic Activation: NONE) was “active; positive”; the mutagenic call (Test System: AMES SALMONELLA TYPHIMURIUM, Strain/Indicator: TA104, Metabolic Activation: RAT, LIVER, S-9, AROCLOR 1254) was “active; positive”.

In the case of `CCC1(CC)C(=O)NC(=O)NC1=O`, the mutagenic call (End Point: IN VITRO MICRONUCLEUS, Test System: CHL/IU CELLS, Metabolic Activation: NONE) is “active; positive”.

Regarding `C=C(C)C1CO1` (stereo not given), the mutagenic call reads like this: under setting [1], “inactive; negative”; under setting [2], “inactive; negative”.

`N#C/C(=C/C=C/c1ccccc1)c1ccc(F)cc1`: the mutagenic call runs as follows: (Test System: AMES SALMONELLA TYPHIMURIUM, Strain/Indicator: TA97A, Metabolic Activation: NONE, Method: STANDARD PLATE) “active; positive”; under setting [2], “inactive; negative”.

`Cc1ccc(N)c([N+](=O)[O-])c1`: the mutagenic call (Test System: AMES SALMONELLA TYPHIMURIUM, Strain/Indicator: TA98, Metabolic Activation: NONE, Method: PREINCUBATION) is “inactive; negative”; the mutagenic call (Test System: AMES SALMONELLA TYPHIMURIUM, Strain/Indicator: TA98, Metabolic Activation: RAT, LIVER, S-9, KANECHLOR 500, Method: PREINCUBATION) is “inactive; negative”; the mutagenic call (Test System: AMES SALMONELLA TYPHIMURIUM, Strain/Indicator: TA100, Metabolic Activation: NONE, Method: PREINCUBATION) was “inactive; negative”; the mutagenic call (Test System: AMES SALMONELLA TYPHIMURIUM, Strain/Indicator: TA100, Metabolic Activation: RAT, LIVER, S-9, KANECHLOR 500, Method: PREINCUBATION) is “inactive; negative”; the mutagenic call (Test System: UDS RODENT HEPATOCYTES, Strain/Indicator: THY INCORP (NON-S-PHASE), Metabolic Activation: NONE, Method: AUTORADIOGRAPHY) is “inactive; negative”.

`Nc1c2ccccc2nc2ccc(Br)cc12`: under “Test System: AMES SALMONELLA TYPHIMURIUM, Strain/Indicator: TA1537, Metabolic Activation: NONE, Method: PREINCUBATION”, the mutagenic call was “active; positive”.
